Measured values reported in patent US20240254085A1, “CHELATORS FOR RADIOMETALS AND METHODS OF MAKING AND USING SAME” (The University of British Columbia, priority 2021, published 2024).

What was measured:
[1] = cited from earlier work
[2] = literature value (ref 11); cited from earlier work
[3] = Protonation constants by combined potentiometric-spectrophotometric and acidic in-batch UV-vis titrations; type: physicochemical; details: 25° C.
Source text: Prior to investigation of the thermodynamic stability of different metal complexes, the protonation constants of the chelating ligand must be determined independently, due to the competition between a given metal ion with a proton for the same coordinating group in the metal complex reaction. Combined potentiometric and UV-vis spectrophotometric titrations were used to evaluate the protonation constants of H4noneunpaX between pH˜2-11.5, while acidic in-batch UV-vis spectrophotometric titrations were used to determine the protonation constants for the most acidic protons, which were below the threshold of the pH electrode (pH<2). All eight protonation constants for H4noneunpaX were determined through refinement of the experimental data using HyperSpec^24 and Hyperquad^25, Table 3.
(§1) All potentiometric titrations were carried out with a Metrohm Titrando 809 and a Metrohm Dosino 800 with a Ross combined electrode. Direct titrations were recorded using a Varian Cary 60 UV-vis spectrophotometer (200-350 nm spectral range) equipped with an optic dip probe (0.2 cm path length), while acidic in-batch experiments were measured with a standardised glass cuvette (1 cm path length). A temperature-controlled (298 K) 20 mL glass cell with an inlet-outlet adapter for nitrogen gas purging (purified via a 10% NaOH solution to exclude CO2 prior to and during each titration) was used as a titration cell. The electrode was calibrated daily in hydrogen ion concentration by direct titration of HCl with freshly prepared NaOH solution, and the results were analysed with the Gran procedure^55 to determine the standard potential (E°) and the ionic product of water (pKw), at 298 K, with 0.16 M NaCl as a supporting electrolyte. Solutions under study were titrated with carbonate-free NaOH solution (˜0.16 M) which was standardized against freshly recrystallized potassium hydrogen phthalate.
The protonation equilibria of H4noneunpaX were evaluated through combined potentiometric-spectrophotometric titrations of solutions containing the ligand ([L]=9.57×10^−4 M) in 0.16 M NaCl (T=298 K, I=0.2 cm). Electromotive force (EMF) values and UV-vis spectra were recorded after each addition of NaOH, and the apparatuses synchronized to have consistent time-intervals (30 s) between each addition/equilibration and data acquisition. Further acidic in-batch UV-vis spectrophotometry studies were performed to obtain the protonation constants for the most acidic ionisable protons of H4noneunpaX, which were below the threshold of the pH electrode (pH<2). Separate solutions of the ligand were prepared at constant molarity ([L]=1×10^−4 M) with differing amounts of HCl (0.1 M and 3.0 M), while maintaining a constant ionic strength (0.16 M NaCl) wherever possible. In each case, the solution stoichiometry was used to calculate the equilibrium concentration of H^+ ions, following the Hammett acidity function (H0) for determination of acidity in high concentration acid solutions. All eight protonation constants for H4noneunpaX were determined through refinement of the experimental data using HypSpec2014^24 and Hyperquad2013^25 software.
(§2) All the potentiometric measurements were processed using the Hyperquad2013^25 software, while spectroscopic measurements were analysed using HypSpec2014.^24 Proton dissociation constants corresponding to hydrolysis of the Sc^3+, In^3+, Lu^3+, Dy^3+ Gd^3+, Sm^3+, and La^3+ aqueous ions used in the calculations were taken from Baes and Mesmer. Speciation diagrams were generated with the calculated protonation constants and stability constants using Hyss software.^56
(§3) Each species generated in the investigated systems can be defined in accordance with the general equilibrium equation pM+qH+rL=MpHqLr (charges omitted). Wherein, a complex containing a metal ion, M, proton, H and ligand, L, has the general formula MpHqLr. […]

[4] = Complex formation equilibria (stability constants) with Sc^3+; type: physicochemical
Description: (§4) To evaluate the affinity of H4noneunpaX towards metal ions of medicinal importance—e.g. Sc^3+, In^3+, Lu^3+, Dy^3+, Gd^3+, Sm^3+, La^3+— the complex formation equilibria were studied using both combined potentiometric-spectrophotometric titrations, and in all cases, acidic in-batch UV-vis spectrophotometric titrations below pH 2. […]
as §1, with “Solutions under study were titrated with carbonate-free NaOH solution (˜0.16 M) which was standardized against freshly recrystallized potassium hydrogen phthalate.” left out
(§5) The complex formation equilibria of H4noneunpaX with Sc^3+, In^3+, Lu^3+, Dy^3+, Gd^3+, Sm^3+, and La^3+ were evaluated using both combined potentiometric-spectrophotometric titrations, and acidic in-batch UV-vis spectrophotometric titrations below pH 2. […] Measurements were recorded at T=298 K, I=1.0 cm, the Hammett acidity function (H0) was used determination of the pH in highly acidic solutions rather than electrode potentials. Metal solutions were prepared from atomic absorption spectroscopy (AAS) standards, which were previously evaluated using Gran's method of titrating equimolar solutions of a given metal ion and Na2H2EDTA against NaOH to determine the acid concentration. […]

[5] = Complex formation equilibria (stability constants) with In^3+; type: physicochemical
Description: as §4, §1
The complex formation equilibria of H4noneunpaX with Sc^3+, In^3+, Lu^3+, Dy^3+, Gd^3+, Sm^3+, and La^3+ were evaluated using both combined potentiometric-spectrophotometric titrations, and acidic in-batch UV-vis spectrophotometric titrations below pH 2. For combined potentiometric-spectrophotometric titrations (spectral range: 200-350 nm), solutions containing a 1:1 molar ratio of metal-to-ligand ([M^3+]≈[H4noneunpaX]=8.40×10^−4 M) were titrated against NaOH solution at T=298 K, I=0.2 cm. Acidic in-batch UV-vis spectrophotometric measurements (spectral range: 200-350 nm) were carried out using sets of solutions containing a 1:1 molar ratio of metal-to-ligand ([M^3+]≈[H4noneunpaX]≈1×10^−4 M) with differing amounts of HCl (0.1 M and 3.0 M), to give samples ranging from pH 0-2. Measurements were recorded at T=298 K, I=1.0 cm, the Hammett acidity function (H0) was used determination of the pH in highly acidic solutions rather than electrode potentials. Metal solutions were prepared from atomic absorption spectroscopy (AAS) standards, which were previously evaluated using Gran's method of titrating equimolar solutions of a given metal ion and Na2H2EDTA against NaOH to determine the acid concentration.
as §2, §3

[6] = Complex formation equilibria (stability constants) with Lu^3+; type: physicochemical
Description: as §4
as §1, with “Solutions under study were titrated with carbonate-free NaOH solution (˜0.16 M) which was standardized against freshly recrystallized potassium hydrogen phthalate.” left out
as §5

[7] = Complex formation equilibria (stability constants) with Dy^3+; type: physicochemical
Description: as §4
as §1, with “Solutions under study were titrated with carbonate-free NaOH solution (˜0.16 M) which was standardized against freshly recrystallized potassium hydrogen phthalate.” left out
as §5

[8] = Complex formation equilibria (stability constants) with Gd^3+; type: physicochemical
Description: as §4
as §1, with “Solutions under study were titrated with carbonate-free NaOH solution (˜0.16 M) which was standardized against freshly recrystallized potassium hydrogen phthalate.” left out
as §5

[9] = Complex formation equilibria (stability constants) with Sm^3+; type: physicochemical
Description: as §4
as §1, with “Solutions under study were titrated with carbonate-free NaOH solution (˜0.16 M) which was standardized against freshly recrystallized potassium hydrogen phthalate.” left out
as §5

[10] = Complex formation equilibria (stability constants) with La^3+; type: physicochemical
Description: as §4
as §1, with “Solutions under study were titrated with carbonate-free NaOH solution (˜0.16 M) which was standardized against freshly recrystallized potassium hydrogen phthalate.” left out
as §5

[11] = Human serum stability challenge; type: in vitro ADME; details: complexes with [^111In]In^3+, [^155Tb]Tb^3+, [^177Lu]Lu^3+, [^225Ac]Ac^3+; 37° C., 5-7 days
Description: All experiments were performed at 37° C. and monitored via radio-iTLC (n=3).
Human serum stability studies were carried out by addition of each radiolabelled complex or bioconjugate (100 μL) to vials containing human serum albumin (100 μL) and incubating the resulting solutions at 37° C. over 5-7 days. The radiochemical purity (RCP) was determined by iTLC using SA-paper plates and EDTA (50 mM, pH 5.5 or 7.0) as eluent, whereby transchelated radioactivity migrates with the solvent front (Rf=1.0) while intact metal complexes remain at the baseline (Rf=0). All studies were performed in triplicate, and the average % RCP used for assessment of each compound.

[12] = literature value (ref 40); cited from earlier work
[13] = −log[Mfree] when [L] = 10 μM, [M] = 1 μM at pH 7.4

With `O=C(O)CN(CCO)CC(=O)O` [HEIDA, N-(2-hydroxyethyl)iminodiacetic acid] as the compound, how does the “log K1” value ([1]; literature value (ref 26), iminodiacetate amine) read?
The value was 8.68.

Which pLu [2] does the source give for `O=C(O)CN(CCN(CC(=O)O)CC(=O)O)CCN(CC(=O)O)CC(=O)O` [DTPA] here?
The pLu was 19.1.

For `O=C(O)CN(CCOCCN(Cc1cccc(C(=O)O)n1)Cc1cccc(C(=O)O)n1)CC(=O)O` [H4noneunpaX], which “Σlog KHqL” value ([3]; I = […] NaCl) is on record?
Its value is 27.35 (6).

And the “log K (log K3)” value ([3]; H2L + H^+ ↔ H3L, I = […] NaCl)?
Its value is 3.79.

What about the “log β” value ([3]; H2L + H^+ ↔ H3L, I = […] NaCl) of the same compound?
Its value is 19.71 (1).

What about the “log K (log K4)” value ([3]; H3L + H^+ ↔ H4L, I = […] NaCl) of the same compound?
Its value is 2.83.

What about the “log β” value ([3]; H3L + H^+ ↔ H4L, I = […] NaCl) of the same compound?
Its value is 22.54 (2).

What about the “log K (log K5)” value ([3]; H4L + H^+ ↔ H5L, I = […] NaCl) of the same compound?
Its value is 2.38.

And the “log β” value ([3]; H4L + H^+ ↔ H5L, I = […] NaCl)?
Its value is 24.92 (3).

What about the “log K (log K6)” value ([3]; H5L + H^+ ↔ H6L, I = […] NaCl) of the same compound?
The value was 2.14.

And the “log β” value ([3]; H5L + H^+ ↔ H6L, I = […] NaCl)?
The value was 27.06 (4).

And the “log K” value ([3]; H6L + H^+ ↔ H7L, I = […] NaCl)?
Its value is 1.01.

And the “log β” value ([3]; H6L + H^+ ↔ H7L, I = […] NaCl)?
Its value is 28.07 (4).

And the “log β” value ([3]; H7L + H^+ ↔ H8L)?
The value was 27.35 (6).

What about the “log K (log K2)” value ([3]; HL + H^+ ↔ H2L, I = […] NaCl) of the same compound?
The value was 7.08.

What about the “log β” value ([3]; HL + H^+ ↔ H2L, I = […] NaCl) of the same compound?
The value was 15.92 (1).

What about the “log K (log K1)” value ([3]; L + H^+ ↔ HL, I = […] NaCl) of the same compound?
The value was 8.84.

And the “log β” value ([3]; L + H^+ ↔ HL, I = […] NaCl)?
Its value is 8.84 (1).

And the “log KMHL” value ([4]; 25° C., I = […] NaCl)?
Its value is 3.07(1).

And the “log KML” value ([4]; 25° C., I = […] NaCl)?
Its value is 23.57(2).

What about the pM [4, 13] of the same compound?
Its pM is 22.9.

And the “log KM(OH)2L” value ([5]; 25° C., I = […] NaCl)?
Its value is 9.06(4).

What about the “log KM(OH)L” value ([5]; 25° C., I = […] NaCl) of the same compound?
Its value is 8.58(4).

What about the “log KMHL” value ([5]; 25° C., I = […] NaCl) of the same compound?
Its value is 6.17(3).

And the “log KML” value ([5]; 25° C., I = […] NaCl)?
The value was 27.64(2).

And the pM [5, 13]?
Its pM is 26.5.

What about the “log KMHL” value ([6]; 25° C., I = […] NaCl) of the same compound?
The value was 2.28(3).

What about the “log KML” value ([6]; 25° C., I = […] NaCl) of the same compound?
Its value is 21.93(3).

And the pM [6, 13]?
The pM was 21.3.

What about the “log KMHL” value ([7]; 25° C., I = […] NaCl) of the same compound?
Its value is 2.29(2).

What about the “log KML” value ([7]; 25° C., I = […] NaCl) of the same compound?
Its value is 21.99(5).

And the pM [7, 13]?
Its pM is 21.3.

And the “log KMHL” value ([8]; 25° C., I = […] NaCl)?
Its value is 2.80(1).

And the “log KML” value ([8]; 25° C., I = […] NaCl)?
Its value is 20.87(4).

What about the pM [8, 13] of the same compound?
Its pM is 20.2.

What about the “log KMHL” value ([9]; 25° C., I = […] NaCl) of the same compound?
The value was 2.77(1).

What about the “log KML” value ([9]; 25° C., I = […] NaCl) of the same compound?
Its value is 21.04(2).

What about the pM [9, 13] of the same compound?
Its pM is 20.4.

What about the “log KMHL” value ([10]; 25° C., I = […] NaCl) of the same compound?
The value was 3.22(2).

And the “log KML” value ([10]; 25° C., I = […] NaCl)?
Its value is 18.45(4).

What about the pM [10, 13] of the same compound?
Its pM is 17.8.

What about the “release of bound radiometal in human serum” value [11] of the same compound?
Its value is “no release of bound radiometal”.

For `O=C(O)CN(CCOCCN(CC(=O)O)Cc1cccc(C(=O)O)n1)Cc1cccc(C(=O)O)n1` [H4noneunpa], which “log K2” value ([1]; literature value (ref 13), terminal amine) is on record?
Its value is 7.63.

For `O=C(O)CN1CCN(CC(=O)O)CCN(CC(=O)O)CCN(CC(=O)O)CC1` [DOTA], which pLu [2] is on record?
The pLu was 17.1.

Which “accumulation in the adrenal glands” value [12] does the source give for [^177Lu][Lu(DOTATATE)] here?
Its value is 8.95 % ID/g.

What about the “accumulation in the lungs” value [12] of the same compound?
Its value is 17.4 % ID/g.

And the “accumulation in the pancreas” value [12]?
The value was 10.9 % ID/g.

And the “uptake in the kidneys” value [12]?
The value was 6.31 % ID/g.
